Data as given in patent publication US20220054432A1, “COMPOSITION FOR INCREASING RETENTION OF CAROTENOID IN BLOOD” (ENEOS Corporation, priority 2018, published 2022).
Where two headings read alike, the source gives them in different places.

Experiments:
[1] = Proportion of trans carotenoid in serum and each organ of mice (Test Example 2); type: in vivo, ICR strain mice; details: mice of Test Example 1, 50 mg/kg orally once daily for 10 days
Description: In HPLC, the concentration of adonixanthin was measured as a concentration of each of the cis isomer and the trans isomer. In HPLC, the concentration of astaxanthin was measured as a concentration of each of the cis isomer and the trans isomer. Regarding each of adonixanthin and astaxanthin in serum and each organ of mice of Test Example 1, the proportion of the trans isomer was confirmed.

[2] = Transfer into each organ: carotenoid concentration in organs of mice (Test Example 1); type: in vivo, ICR strain mice; details: 50 mg/kg orally once daily for 10 days; for concentration at 10 days: ICR, mouse, po, after last administration, mean
Source text: Adonixanthin was used as an asymmetric carotenoid, and astaxanthin was used as a symmetric carotenoid. As experimental animals, ICR strain mice were used. Fourteen (14) mice were used, and 4 mice each were assigned to the adonixanthin-administration group and the astaxanthin-administration group, and 6 mice were assigned to the control administration group. In grouping, each group was constituted so that the mean body weight in each group was as uniform as possible based on the body weight on the day before initiation of administration.
To each experimental group, each of adonixanthin, astaxanthin, and olive oil (product number 150-00276, manufactured by Wako Pure Chemical Industries, Ltd.) was orally administered. In the adonixanthin-administration group and the astaxanthin-administration group, adonixanthin and astaxanthin at a volume of 50 mg/kg body weight were orally administered once daily for 10 days (the day of initiation of administration of the dosing substances was defined as day 1) using a flexible stomach tube. In the control administration group, olive oil at a volume of 0.05 mL/kg body weight was orally administered once daily for 10 days using a flexible stomach tube.
During the administration period, the mice were fed ad libitum a pellet (CE-2, manufactured by CLEA Japan, Inc.) and tap water, and maintained on a 12-h light/dark cycle, at 23±3° C., with a relative humidity of 50±20%.
After blood collection after the last administration, the whole body was perfused with a heparinized lactated Ringer's solution under isoflurane anesthesia, followed by collection of the retina, the heart, the lung, the spleen, the liver, and the kidney. The collected organs were immediately frozen with liquid nitrogen, and were stored at −80° C.
Each of the concentration of adonixanthin in each organ collected from the adonixanthin-administration group (concentration relative to the weight of each organ) and the concentration of astaxanthin in each organ collected from the astaxanthin-administration group (concentration relative to the weight of each organ) was measured. Specifically, each organ was homogenized, and extraction was repeated with acetone until no color occurred. Then, filtration through a filter was performed to evaporate acetone, and diethyl ether:hexane (2:8, v/v) was added to the solution to extract a carotenoid. Furthermore, evaporation to dryness was performed, and the residue was dissolved in acetone:hexane (2:8, v/v) and subjected to HPLC. As the HPLC device, a Hitachi L-6000 intelligent pump and an L-4250 UV-VIS detector were used. The measurement wavelength was 450 nm, and a column of 5 μm Cosmosil 5SL-II (inner diameter of 250×4.6 mm) (manufactured by Nacalai Tesque, Inc.) was used. As the mobile phase, acetone:hexane (2:8, v/v) was used, and measurement was performed at a flow rate of 1.0 mL/min.
In HPLC, the concentration of astaxanthin was measured as a concentration of each of the cis isomer and the trans isomer.
Each of the concentration of adonixanthin in each organ collected from the adonixanthin-administration group and the concentration of astaxanthin in each organ collected from the astaxanthin-administration group is shown in Table 1. The measured value was expressed as mean. From each organ collected from the control administration group, neither adonixanthin nor astaxanthin were detected.

[3] = heart, read-out: Concentration in organ: Heart
[4] = kidney, read-out: Concentration in organ: Kidney
[5] = liver, read-out: Concentration in organ: Liver
[6] = lung, read-out: Concentration in organ: Lung
[7] = spleen, read-out: Concentration in organ: Spleen

concentration at 10 days [2, 3]	concentration at 10 days [2, 4]	concentration at 10 days [2, 5]	concentration at 10 days [2, 6]	concentration at 10 days [2, 7]	SMILES	Proportion of the trans isomer in each organ versus the cis isomer, FIG. 2 [1]	Transfer into and retention in each organ (summary of Table 1) [2]
124 ng/g	84.6 ng/g	109 ng/g	106 ng/g	87.8 ng/g	CC1=C(/C=C/C(C)=C/C=C/C(C)=C/C=C/C=C(C)/C=C/C=C(C)/C=C/C2=C(C)C(=O)C(O)CC2(C)C)C(C)(C)CC(O)C1=O (stereo not drawn) [astaxanthin, 3,3′-dihydroxy-β,β-carotene-4,4′-dione]	higher than the proportion of the cis isomer	exist in each organ at a high concentration
141 ng/g	774 ng/g	1930 ng/g	1940 ng/g	277 ng/g	CC1=C(/C=C/C(C)=C/C=C/C(C)=C/C=C/C=C(C)/C=C/C=C(C)/C=C/C2=C(C)C(=O)C(O)CC2(C)C)C(C)(C)CC(O)C1 (stereo not drawn) [adonixanthin, 3,3′-dihydroxy-β,β-caroten-4-one]	especially higher than the proportion of the cis isomer	especially likely to be transferred into each organ and retained therein
